Reference: paper PMC11356900, “Synthesis, Structural Properties and Biological Activities of Novel Hydrazones of 2-, 3-, 4-Iodobenzoic Acid” (Molecules, 2024)
Converted amounts (≈) assume the structure as drawn.

What was measured:
Assay in all cases: Broth microdilution MIC/MFC
Type in all cases: cell-based
[1] = tested on: Candida albicans ATCC 10231; conditions: for MFC: ATCC10231, read-out: MFC; for MIC: ATCC10231, read-out: MIC
Procedure, shortened: (§1)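 Following EUCAST and CLSI guidance, growth inhibition is measured in broth across final compound levels of 1000 down to 0.488 µg/mL. Cidal endpoints come from spotting each well onto agar; three independent repeats.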

[2] = tested on: Candida albicans ATCC 2091; conditions: for MFC: ATCC2091, read-out: MFC; for MIC: ATCC2091, read-out: MIC
Procedure, shortened: as §1

[3] = tested on: Candida glabrata ATCC 90030; conditions: Nakaseomyces glabratus; for MFC: ATCC90030, read-out: MFC; for MIC: ATCC90030, read-out: MIC
Procedure, shortened: as §1

[4] = tested on: Candida krusei ATCC 14243; conditions: Pichia kudriavzevii; for MFC: ATCC14243, read-out: MFC; for MIC: ATCC14243, read-out: MIC
Procedure, shortened: as §1

[5] = tested on: Candida parapsilosis ATCC 22019; conditions: Lodderomyces parapsilosis; for MFC: ATCC22019, read-out: MFC; for MIC: ATCC22019, read-out: MIC
Procedure, shortened: as §1

Structure (SMILES)	MFC [1] [µg/mL]	MIC [1] [µg/mL]	MFC [2] [µg/mL]	MIC [2] [µg/mL]	MFC [3] [µg/mL]	MIC [3] [µg/mL]	MFC [4] [µg/mL]	MIC [4] [µg/mL]	MFC [5] [µg/mL]	MIC [5] [µg/mL]
O=C(N/N=C/c1cc(Cl)cc(I)c1O)c1ccc(I)cc1 [Compound 27, N-[(5-chloro-2-hydroxy-3-iodophenyl)methylidene]-4-iodobenzohydrazide]	31.2 (≈ 59.4 µM)	15.6 (≈ 29.7 µM)	62.5 (≈ 119 µM)	62.5 (≈ 119 µM)	62.5 (≈ 119 µM)	31.2 (≈ 59.4 µM)	62.5 (≈ 119 µM)	62.5 (≈ 119 µM)	62.5 (≈ 119 µM)	31.2 (≈ 59.4 µM)
O=C(N/N=C/c1cc(Cl)cc(I)c1O)c1cccc(I)c1 [Compound 20, N-[(5-chloro-2-hydroxy-3-iodophenyl)methylidene]-3-iodobenzohydrazide]	> 1000	250 (≈ 475 µM)	> 1000	500 (≈ 950 µM)	> 1000	125 (≈ 237 µM)	> 1000	500 (≈ 950 µM)	> 1000	125 (≈ 237 µM)
O=C(N/N=C/c1cc(Br)cc(Br)c1O)c1cccc(I)c1 [Compound 21, N-[(3,5-dibromo-2-hydroxyphenyl)methylidene]-3-iodobenzohydrazide]	> 1000	250 (≈ 477 µM)	> 1000	500 (≈ 954 µM)	> 1000	125 (≈ 239 µM)	> 1000	500 (≈ 954 µM)	> 1000	250 (≈ 477 µM)
O=C(N/N=C/c1cc(I)cc(I)c1O)c1ccccc1I [Compound 14, N-[(3,5-diiodo-2-hydroxyphenyl)methylidene]-2-iodobenzohydrazide]	1000 (≈ 1620 µM)	500 (≈ 809 µM)	> 1000	500 (≈ 809 µM)	1000 (≈ 1620 µM)	250 (≈ 405 µM)	> 1000	500 (≈ 809 µM)	> 1000	1000 (≈ 1620 µM)
